System: Clonic Seizures Caused by Pentylenetetrazole
Assay: Protection against clonic seizures caused by pentylenetetrazole in rats
Type: in vivo
Conditions: oral; for ED50: Rattus norvegicus, 2% starch vehicle, groups of at least 5 rats, pentylenetetrazole 21 to 23 mg/kg i.v. at estimated time of peak effect, protection of 50% of animals (Litchfield and Wilcoxon), read-out: Median Effective Oral Dose ED50 (protection against clonic seizures caused by pentylenetetrazole); for effectiveness as anxiolytic agent relative to the respective dextrorotatory and racemic forms of the desmethyl prior art compound (Compounds 3 and 4): rats, from ED50 table
Procedure: The anti-anxiety properties of the active components of the present invention have been established in a test which indicates anxiolytic activity by a measure of protection from convulsions resulting from the administration of pentylenetetrazol. Graded dose levels of the dextro and racemic forms of the compound 1,2,3,11a-tetrahydro-10-mthyl-5H-pyrrolo[2,1-c] [1,4]benzodiazepin-5,11(10H)-dione are administered orally, in a 2% starch vehicle, to groups of at least 5 rats. At the estimated time of peak effect, the rats are treated intravenously with pentylenetetrazole at a dose of 21 to 23 mg./kg. of body weight. This dose is estimated to cause clonic seizures in 99% of unprotected rats. The effective dose of the test compound for protection of 50% of the animals is calculated by the method of J. T. Litchfield and F. Wilcoxon, Journal of Pharmacology and Experimental Therapeutics, 96, 99 (1949). The results are given in the table which follows in comparison with Librium (chlordiazepoxide), Valium (diazepam) and the dextro and racemic forms of 1,2,3,11 a-tetrahydro-5H-pyrrolo[2,1-c] [1,4]benzodiazepin-5,11(10H)-dione (U.S. Pat. No. 3,732,212) all of which were tested in exactly the same manner. It has been reported [R. T. Hill and D. R. Tedeschi, "Animal Testing and Screening Procedures in Evaluating Psychotropic Drugs" in An Introduction to Psychopharmacology, Eds. R. R. Rech and K. E. Moore, Raven Press, New York, pp. 237-288 (1971) that there is a high degree of correlation between antagonism of pentylenetetrazole seizures in rats and antianxiety effects in higher warm-blooded animals.

O=C1Nc2ccccc2C(=O)N2CCC[C@@H]12 [Compound 3, Dextro-1,2,3,11a-tetrahydro-5H-pyrrolo[2,1-c]-[1,4]-benzodiazepin-5,11(10H)-dione]
ED50: 35 mg/kg

CN1C(=O)CN=C(c2ccccc2)c2cc(Cl)ccc21 [Compound 6, diazepam]
ED50: 1.8 mg/kg

CNC1=Nc2ccc(Cl)cc2C(c2ccccc2)=[N+]([O-])C1 [Compound 5, chlordiazepoxide]
ED50: 2.5 mg/kg

CN1C(=O)C2CCCN2C(=O)c2ccccc21 (racemic) [Compound 2, Racemic-1,2,3,11a-tetrahydro-10-methyl-5H-pyrrolo[2,1-c][1,4]benzodiazepin-5,11(10H)-dione]
ED50: 20 mg/kg | effectiveness as anxiolytic agent relative to the respective dextrorotatory and racemic forms of the desmethyl prior art compound (Compounds 3 and 4): far more effective

O=C1Nc2ccccc2C(=O)N2CCCC12 (racemic) [Compound 4, Racemic-1,2,3,11a-tetrahydro-5H-pyrrolo[2,1-c]-[1,4]benzodiazepin-5,11(10H)-dione]
ED50: 70 mg/kg

CN1C(=O)[C@@H]2CCCN2C(=O)c2ccccc21 [Compound 1, Dextro-1,2,3,11a-tetrahydro-10-methyl-5H-pyrrolo[2,1-c][1,4]benzodiazepin-5,11(10H)-dione]
ED50: 10 mg/kg | effectiveness as anxiolytic agent relative to the respective dextrorotatory and racemic forms of the desmethyl prior art compound (Compounds 3 and 4): far more effective
